Experimental data: patent publication US20230085307A1, “PYRIDAZINONE COMPOUND AND HERBICIDE” (NISSAN CHEMICAL CORPORATION, priority 2019, published 2023)

Experiments:
[1] = system: oval-leafed pondweed; assay: Test Example 1: herbicidal activity, application before weed generation under submerged conditions (Table 16, symbol C); format: in vivo, oval-leafed pondweed (Monochoria vaginalis); details: amount of applied herbicide 320 g/ha
Procedure, shortened: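 Submerged Wagner pots (alluvial soil, 4 cm water) sown with weed seeds and planted with 2.5-leaf rice seedlings; emulsifiable concentrate diluted in water applied to water surface on sowing day. Held in greenhouse at 25-30 °C; injury scored 0-5 by herbicidal rate after three weeks.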

[2] = system: oval-leafed pondweed; assay: Test Example 2: herbicidal activity, application during weed generation under submerged conditions (Table 17, symbol C); format: in vivo, oval-leafed pondweed (Monochoria vaginalis); details: AAH 320 g/ha; application during weed generation, submerged conditions
Procedure, shortened: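 Mixed weed seedlings in alluvial soil under a 4 cm water layer, greenhouse-grown at 25–30° C. Compound given as a diluted emulsion into the floodwater at the 1–2 leaf stage; response graded after three weeks.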

[3] = system: Chinese sprangletop; assay: Test Example 3: herbicidal effect by foliage application, Wagner pot (Table 18, symbol D); format: in vivo, chinese sprangletop (Leptochloa chinensis); details: for herbicidal effect on Chinese sprangletop (D): 320 g/ha
Procedure, shortened: (§1)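 Plants were sown in alluvial soil held under 0.1–0.5 cm standing water and grown 14 days in a greenhouse at 25–30 °C. An emulsifiable formulation, water-diluted to the set dose, was then sprayed onto the foliage, and effects were scored three weeks later using previously defined criteria.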

[4] = system: rice flat sedge; assay: Test Example 3: herbicidal effect by foliage application, Wagner pot (Table 18, symbol E); format: in vivo, rice flat sedge (Cyperus iria); details: for herbicidal effect on rice flat sedge (E): 320 g/ha
Procedure, shortened: as §1

[5] = system: southern crabgrass; assay: Test Example 4: herbicidal effect by soil treatment (Table 19, symbol F); format: in vivo, southern crabgrass (Digitaria ciliaris); details: amount of applied herbicide 320 g/ha
Procedure, shortened: (§2)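 Soil-surface application: an emulsion agent diluted with water to the predetermined dose is sprayed uniformly over seeds lying under roughly 1.5 cm of sterilized diluvial soil. Boxes stay in a greenhouse at 25° C. to 30° C. Three weeks later, each species is graded on previously defined criteria.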

[6] = system: windgrass; assay: Test Example 4: herbicidal effect by soil treatment (Table 19, symbol L); format: in vivo, windgrass (Apera spica-venti); details: amount of applied herbicide 320 g/ha
Procedure, shortened: as §2

[7] = system: velvetleaf; assay: Test Example 4: herbicidal effect by soil treatment (Table 19, symbol M); format: in vivo, velvetleaf (Abutilon theophrasti); details: amount of applied herbicide 320 g/ha
Procedure, shortened: as §2

[8] = system: redroot pigweed; assay: Test Example 4: herbicidal effect by soil treatment (Table 19, symbol N); format: in vivo, redroot pigweed (Amaranthus retroflexus); details: amount of applied herbicide 320 g/ha
Procedure, shortened: as §2

[9] = system: lambsquarters; assay: Test Example 4: herbicidal effect by soil treatment (Table 19, symbol O); format: in vivo, lambsquarters (Chenopodium album); details: amount of applied herbicide 320 g/ha
Procedure, shortened: as §2

[10] = system: false cleavers; assay: Test Example 4: herbicidal effect by soil treatment (Table 19, symbol Q); format: in vivo, false cleavers (Galium spurium); details: amount of applied herbicide 320 g/ha
Procedure, shortened: as §2

[11] = system: southern crabgrass; assay: Test Example 5: herbicidal effect by foliage application, plastic box (Table 20, symbol F); format: in vivo, southern crabgrass (Digitaria ciliaris); details: foliage application, 320 g/ha, three weeks after application
Procedure, shortened: (§3)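 Sow seeds spot-wise in sterilized diluvial soil; cover with ~1.5 cm soil. Grow 14 days in greenhouse, 25° C. to 30° C. Spray foliage with emulsion diluted to predetermined amount. Rate effect after 3 weeks.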

[12] = system: green foxtail; assay: Test Example 5: herbicidal effect by foliage application, plastic box (Table 20, symbol G); format: in vivo, green foxtail (Setaria viridis); details: foliage application, 320 g/ha, three weeks after application
Procedure, shortened: as §3

[13] = system: barnyard grass; assay: Test Example 5: herbicidal effect by foliage application, plastic box (Table 20, symbol H); format: in vivo, barnyard grass (Echinochloa crus-galli); details: foliage application, 320 g/ha, three weeks after application
Procedure, shortened: as §3

[14] = system: windgrass; assay: Test Example 5: herbicidal effect by foliage application, plastic box (Table 20, symbol L); format: in vivo, windgrass (Apera spica-venti); details: foliage application, 320 g/ha, three weeks after application
Procedure, shortened: as §3

[15] = system: lambsquarters; assay: Test Example 5: herbicidal effect by foliage application, plastic box (Table 20, symbol O); format: in vivo, lambsquarters (Chenopodium album); details: foliage application, 320 g/ha, three weeks after application
Procedure, shortened: as §3

[16] = system: chickweed; assay: Test Example 5: herbicidal effect by foliage application, plastic box (Table 20, symbol P); format: in vivo, common chickweed (Stellaria media); details: foliage application, 320 g/ha, three weeks after application
Procedure, shortened: as §3

[17] = system: persian speedwell; assay: Test Example 5: herbicidal effect by foliage application, plastic box (Table 20, symbol R); format: in vivo, Persian speedwell (Veronica persica); details: foliage application, 320 g/ha, three weeks after application
Procedure, shortened: as §3

[18] = amount of applied herbicide 320 g/ha

Cc1nn(C)c(=O)c(-c2c(-c3ccc4c(c3)OCCO4)sc3cc(F)ccc23)c1O [3-013]
Herbicidal effect, C: oval-leafed pondweed [1]: 2 (Herbicidal rate of 20% or more and less than 40%) | herbicidal effect rating, C: oval-leafed pondweed [2]: 3 (Herbicidal rate of 40% or more and less than 70%) | herbicidal effect on D: Chinese sprangletop [3, 18]: 4 (Herbicidal rate of 70% or more and less than 90%) | herbicidal effect on E: rice flat sedge [4, 18]: 5 (Herbicidal rate of 90% or more (almost completely withered)) | herbicidal effect, F: southern crabgrass [5]: 4 (Herbicidal rate of 70% or more and less than 90%) | herbicidal effect, L: windgrass [6]: 0 (Herbicidal rate of 5% or less (almost no effect)) | herbicidal effect, M: velvetleaf [7]: 3 (Herbicidal rate of 40% or more and less than 70%) | herbicidal effect, N: redroot pigweed [8]: 4 (Herbicidal rate of 70% or more and less than 90%) | herbicidal effect, O: lambsquarters [9]: 5 (Herbicidal rate of 90% or more (almost completely withered)) | herbicidal effect, Q: false cleavers [10]: 4 (Herbicidal rate of 70% or more and less than 90%) | F: southern crabgrass, herbicidal effect grade [11]: 4 (Herbicidal rate of 70% or more and less than 90%) | G: green foxtail, herbicidal effect grade [12]: 4 (Herbicidal rate of 70% or more and less than 90%) | H: barnyard grass, herbicidal effect grade [13]: 3 (Herbicidal rate of 40% or more and less than 70%) | L: windgrass, herbicidal effect grade [14]: 0 (Herbicidal rate of 5% or less (almost no effect)) | O: lambsquarters, herbicidal effect grade [15]: 5 (Herbicidal rate of 90% or more (almost completely withered)) | P: chickweed, herbicidal effect grade [16]: 5 (Herbicidal rate of 90% or more (almost completely withered)) | R: persian speedwell, herbicidal effect grade [17]: 5 (Herbicidal rate of 90% or more (almost completely withered))

CCCC(=O)Oc1c(C)nn(C)c(=O)c1-c1c(-c2ccccc2)sc2cc(OC)ccc12 [3-062]
Herbicidal effect, C: oval-leafed pondweed [1]: 4 (Herbicidal rate of 70% or more and less than 90%) | herbicidal effect rating, C: oval-leafed pondweed [2]: 3 (Herbicidal rate of 40% or more and less than 70%) | herbicidal effect on Chinese sprangletop (D) [3]: 1 (Herbicidal rate of 5% or more and less than 20%) | herbicidal effect on rice flat sedge (E) [4]: 5 (Herbicidal rate of 90% or more (almost completely withered)) | F: southern crabgrass, herbicidal effect grade [5]: 0 (Herbicidal rate of 5% or less (almost no effect)) | L: windgrass, herbicidal effect grade [6]: 0 (Herbicidal rate of 5% or less (almost no effect)) | M: velvetleaf, herbicidal effect grade [7]: 0 (Herbicidal rate of 5% or less (almost no effect)) | N: redroot pigweed, herbicidal effect grade [8]: 0 (Herbicidal rate of 5% or less (almost no effect)) | O: lambsquarters, herbicidal effect grade [9]: 0 (Herbicidal rate of 5% or less (almost no effect)) | Q: false cleavers, herbicidal effect grade [10]: 2 (Herbicidal rate of 20% or more and less than 40%) | F: southern crabgrass, herbicidal effect grade [11]: 0 (Herbicidal rate of 5% or less (almost no effect)) | G: green foxtail, herbicidal effect grade [12]: 0 (Herbicidal rate of 5% or less (almost no effect)) | H: barnyard grass, herbicidal effect grade [13]: 0 (Herbicidal rate of 5% or less (almost no effect)) | L: windgrass, herbicidal effect grade [14]: 0 (Herbicidal rate of 5% or less (almost no effect)) | O: lambsquarters, herbicidal effect grade [15]: 2 (Herbicidal rate of 20% or more and less than 40%) | P: chickweed, herbicidal effect grade [16]: 5 (Herbicidal rate of 90% or more (almost completely withered)) | R: persian speedwell, herbicidal effect grade [17]: 3 (Herbicidal rate of 40% or more and less than 70%)

CCOc1ccccc1-c1sc2cc(C)ccc2c1-c1c(O)c(C)nn(C)c1=O [3-053]
Herbicidal effect, C: oval-leafed pondweed [1]: 4 (Herbicidal rate of 70% or more and less than 90%) | herbicidal effect rating, C: oval-leafed pondweed [2]: 3 (Herbicidal rate of 40% or more and less than 70%) | herbicidal effect on Chinese sprangletop (D) [3]: 4 (Herbicidal rate of 70% or more and less than 90%) | herbicidal effect on rice flat sedge (E) [4]: 5 (Herbicidal rate of 90% or more (almost completely withered)) | F: southern crabgrass, herbicidal effect grade [5]: 5 (Herbicidal rate of 90% or more (almost completely withered)) | L: windgrass, herbicidal effect grade [6]: 5 (Herbicidal rate of 90% or more (almost completely withered)) | M: velvetleaf, herbicidal effect grade [7]: 0 (Herbicidal rate of 5% or less (almost no effect)) | N: redroot pigweed, herbicidal effect grade [8]: 3 (Herbicidal rate of 40% or more and less than 70%) | O: lambsquarters, herbicidal effect grade [9]: 4 (Herbicidal rate of 70% or more and less than 90%) | Q: false cleavers, herbicidal effect grade [10]: 5 (Herbicidal rate of 90% or more (almost completely withered)) | F: southern crabgrass, herbicidal effect grade [11]: 5 (Herbicidal rate of 90% or more (almost completely withered)) | G: green foxtail, herbicidal effect grade [12]: 5 (Herbicidal rate of 90% or more (almost completely withered)) | H: barnyard grass, herbicidal effect grade [13]: 5 (Herbicidal rate of 90% or more (almost completely withered)) | L: windgrass, herbicidal effect grade [14]: 5 (Herbicidal rate of 90% or more (almost completely withered)) | O: lambsquarters, herbicidal effect grade [15]: 5 (Herbicidal rate of 90% or more (almost completely withered)) | P: chickweed, herbicidal effect grade [16]: 5 (Herbicidal rate of 90% or more (almost completely withered)) | R: persian speedwell, herbicidal effect grade [17]: 5 (Herbicidal rate of 90% or more (almost completely withered))

CCCC(=O)Oc1c(C)nn(C)c(=O)c1-c1c(-c2ccc(F)cc2OCC)sc2cc(C)ccc12 [3-058]
Herbicidal effect, C: oval-leafed pondweed [1]: 3 (Herbicidal rate of 40% or more and less than 70%) | herbicidal effect rating, C: oval-leafed pondweed [2]: 4 (Herbicidal rate of 70% or more and less than 90%) | herbicidal effect on Chinese sprangletop (D) [3]: 4 (Herbicidal rate of 70% or more and less than 90%) | herbicidal effect on rice flat sedge (E) [4]: 5 (Herbicidal rate of 90% or more (almost completely withered)) | F: southern crabgrass, herbicidal effect grade [5]: 5 (Herbicidal rate of 90% or more (almost completely withered)) | L: windgrass, herbicidal effect grade [6]: 5 (Herbicidal rate of 90% or more (almost completely withered)) | M: velvetleaf, herbicidal effect grade [7]: 5 (Herbicidal rate of 90% or more (almost completely withered)) | N: redroot pigweed, herbicidal effect grade [8]: 5 (Herbicidal rate of 90% or more (almost completely withered)) | O: lambsquarters, herbicidal effect grade [9]: 5 (Herbicidal rate of 90% or more (almost completely withered)) | Q: false cleavers, herbicidal effect grade [10]: 1 (Herbicidal rate of 5% or more and less than 20%) | F: southern crabgrass, herbicidal effect grade [11]: 5 (Herbicidal rate of 90% or more (almost completely withered)) | G: green foxtail, herbicidal effect grade [12]: 5 (Herbicidal rate of 90% or more (almost completely withered)) | H: barnyard grass, herbicidal effect grade [13]: 5 (Herbicidal rate of 90% or more (almost completely withered)) | L: windgrass, herbicidal effect grade [14]: 5 (Herbicidal rate of 90% or more (almost completely withered)) | O: lambsquarters, herbicidal effect grade [15]: 5 (Herbicidal rate of 90% or more (almost completely withered)) | P: chickweed, herbicidal effect grade [16]: 5 (Herbicidal rate of 90% or more (almost completely withered)) | R: persian speedwell, herbicidal effect grade [17]: 5 (Herbicidal rate of 90% or more (almost completely withered))

CCOc1cc(F)ccc1-c1sc2cc(C)ccc2c1-c1c(O)c(C)nn(C)c1=O [3-057]
Herbicidal effect, C: oval-leafed pondweed [1]: 5 (Herbicidal rate of 90% or more (almost completely withered)) | herbicidal effect rating, C: oval-leafed pondweed [2]: 3 (Herbicidal rate of 40% or more and less than 70%) | herbicidal effect on Chinese sprangletop (D) [3]: 3 (Herbicidal rate of 40% or more and less than 70%) | herbicidal effect on rice flat sedge (E) [4]: 4 (Herbicidal rate of 70% or more and less than 90%) | F: southern crabgrass, herbicidal effect grade [5]: 5 (Herbicidal rate of 90% or more (almost completely withered)) | L: windgrass, herbicidal effect grade [6]: 5 (Herbicidal rate of 90% or more (almost completely withered)) | M: velvetleaf, herbicidal effect grade [7]: 2 (Herbicidal rate of 20% or more and less than 40%) | N: redroot pigweed, herbicidal effect grade [8]: 5 (Herbicidal rate of 90% or more (almost completely withered)) | O: lambsquarters, herbicidal effect grade [9]: 5 (Herbicidal rate of 90% or more (almost completely withered)) | Q: false cleavers, herbicidal effect grade [10]: 3 (Herbicidal rate of 40% or more and less than 70%) | F: southern crabgrass, herbicidal effect grade [11]: 5 (Herbicidal rate of 90% or more (almost completely withered)) | G: green foxtail, herbicidal effect grade [12]: 5 (Herbicidal rate of 90% or more (almost completely withered)) | H: barnyard grass, herbicidal effect grade [13]: 5 (Herbicidal rate of 90% or more (almost completely withered)) | L: windgrass, herbicidal effect grade [14]: 5 (Herbicidal rate of 90% or more (almost completely withered)) | O: lambsquarters, herbicidal effect grade [15]: 5 (Herbicidal rate of 90% or more (almost completely withered)) | P: chickweed, herbicidal effect grade [16]: 5 (Herbicidal rate of 90% or more (almost completely withered)) | R: persian speedwell, herbicidal effect grade [17]: 5 (Herbicidal rate of 90% or more (almost completely withered))
